# Reference: patent US20110280940A1, “Di-Vanilloyl And Tri-Vanilloyl Derivatives For Use In Anti-Cancer Therapy” (priority 2008, published 2011)
# Legend:
# pfGSK3 = pfGSK3 (Plasmodium falciparum, UniProt O77344); assay: Kinase activity assay, pfGSK3; assay type: biochemical; conditions: 10 μM, 1% DMSO, 15 μM ATP; residual activity
# Method: (§1) Buffer A: 10 mM MgCl2, 1 mM EGTA, 1 mM DTT, 25 mM Tris-HCl pH 7.5, 50 μg heparin/ml. Buffer C: 60 mM β-glycerophosphate, 15 mM p-nitrophenylphosphate, 25 mM Mops (pH 7.2), 5 mM EGTA, 15 mM MgCl2, 1 mM DTT, 1 mM sodium vanadate, 1 mM phenyl phosphate.
# (§2) Kinase activities were assayed in Buffer A or C, at 30° C., at a final ATP concentration of 15 μM. Blank values were subtracted and activities expressed in % of the maximal activity, i.e. in the absence of inhibitors. Controls were performed with appropriate dilutions of DMSO.
# [1] = system: A549 non-small-cell-lung cancer cell line; assay: Cellular imaging (quantitative videomicroscopy), global growth ratio, A549; assay type: cell-based; conditions: Homo sapiens, 72 h, read-out: Global Grow Ratio Treated/Ct (GGR T/Ct) determined by Video Quantitative microscopy, A549
# CDK5/p25 = molecular target: T1, CDK5/p25 (Homo sapiens, UniProt Q00535); assay: Kinase activity assay, CDK5; assay type: biochemical; conditions: 10 μM, 1% DMSO, 15 μM ATP; residual activity
# T1 construct: made in house
# T1 sequence (Q00535 whole entry): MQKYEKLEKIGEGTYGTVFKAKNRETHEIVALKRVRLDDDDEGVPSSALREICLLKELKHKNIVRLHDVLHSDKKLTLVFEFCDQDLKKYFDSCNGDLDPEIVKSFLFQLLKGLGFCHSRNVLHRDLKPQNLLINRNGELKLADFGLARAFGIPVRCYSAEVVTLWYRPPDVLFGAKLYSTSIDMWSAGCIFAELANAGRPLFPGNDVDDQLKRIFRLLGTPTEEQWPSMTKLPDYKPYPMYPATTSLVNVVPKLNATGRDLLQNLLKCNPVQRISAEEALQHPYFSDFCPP
# T1 sequence (Q15078 99-307 partner limits assumed): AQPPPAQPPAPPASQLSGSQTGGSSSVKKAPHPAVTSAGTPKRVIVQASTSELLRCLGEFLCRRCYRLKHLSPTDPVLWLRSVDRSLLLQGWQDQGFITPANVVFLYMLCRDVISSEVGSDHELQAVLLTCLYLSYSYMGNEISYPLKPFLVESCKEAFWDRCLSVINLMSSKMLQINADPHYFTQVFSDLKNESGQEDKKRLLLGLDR
# Method: as §1, §2
# CDK1/cyclin B (M phase starfish oocytes, native), CDK2/cyclin A, CDK2/cyclin E, CDK5/p25 and CDK7/cyclin H (human, recombinant) were prepared as previously described (Leclerc et al., 2001, J. Biol. Chem. 2001, 276, 251-260; Bach et al., 2005, J Biol Chem 280: 31208-31219). Their kinase activity was assayed in buffer C, with 1 mg histone H1/ml, in the presence of 15 μM [gamma-^33P] ATP (3,000 Ci/mmol; 10 mCi/ml) in a final volume of 30 μl. After 30 min incubation at 30° C., 25 μl aliquots of supernatant were spotted onto 2.5×3 cm pieces of Whatman P81 phosphocellulose paper, and, 20 sec later, the filters were washed five times (for at least 5 min each time) in a solution of 10 ml phosphoric acid/liter of water. The wet filters were counted in the presence of 1 ml ACS (Amersham) scintillation fluid.
# DYRK1A = DYRK1A (Rattus norvegicus, UniProt Q63470); assay: Kinase activity assay, DYRK1A (GST fusion, myelin basic protein substrate); assay type: biochemical
# Method: as §1, §2
# DYRK1A (rat, recombinant, expressed in E. coli as a GST fusion protein) was purified by affinity chromatography on glutathione-agarose and assayed as described for CDK1/cyclin B using myelin basic protein (1 mg/ml) as a substrate.
# U373-MG glioma cell line = assay: Cellular imaging (quantitative videomicroscopy), global growth ratio, U373; assay type: cell-based; conditions: Homo sapiens, 72 h, read-out: Global Grow Ratio Treated/Ct (GGR T/Ct) determined by Video Quantitative microscopy, U373
# pfGSK3, sequence (O77344 1-440): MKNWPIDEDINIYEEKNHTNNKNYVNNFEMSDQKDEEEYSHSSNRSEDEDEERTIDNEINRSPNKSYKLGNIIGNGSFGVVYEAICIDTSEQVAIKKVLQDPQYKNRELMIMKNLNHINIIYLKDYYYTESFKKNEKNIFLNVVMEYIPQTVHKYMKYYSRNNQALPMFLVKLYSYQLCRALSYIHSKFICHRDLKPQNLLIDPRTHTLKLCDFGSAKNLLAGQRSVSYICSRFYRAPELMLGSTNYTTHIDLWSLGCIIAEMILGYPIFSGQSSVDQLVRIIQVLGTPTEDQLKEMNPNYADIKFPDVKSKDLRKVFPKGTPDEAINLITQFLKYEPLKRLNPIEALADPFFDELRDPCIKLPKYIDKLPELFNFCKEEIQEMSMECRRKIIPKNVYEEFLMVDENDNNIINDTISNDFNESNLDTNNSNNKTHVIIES
smiles,measurement,setting,value
"COc1cc(C(=O)OCCOC(=O)c2ccc(O)c(OC)c2)ccc1O [DLT1, Ethane-1,2-diyl bis-(4-hydroxy-3-methoxybenzoate)]","% ENZYMATIC ACTIVITY, pfGSK3",pfGSK3,92%
same,activity at 50 µM,[1],50%
same,"% ENZYMATIC ACTIVITY, CDK5",CDK5/p25,87%
same,inhibition at 10 µM,DYRK1A,51%
same,"% ENZYMATIC ACTIVITY, Dyrk1A","DYRK1A; 10 μM, 1% DMSO, 15 μM ATP, residual activity",49%
"O=C(OCc1cc(COC(=O)c2ccc(O)c(Cl)c2)cc(COC(=O)c2ccc(O)c(Cl)c2)c1)c1ccc(O)c(Cl)c1 [DLT95-Cl, [3,5-bis[(4-hydroxy-3-chloro-benzoyl)oxymethyl]phenyl]methyl 4-hydroxy-3-chloro-benzoate]",activity at 31 µM,U373-MG glioma cell line,50%
"COc1cc(C(=O)OCCCCCCOC(=O)c2ccc(O)c(OC)c2)ccc1O [DLT11, Hexane-1,6-diyl bis-(4-hydroxy-3-methoxybenzoate)]",activity at 50 µM,[1],20%
"O=C(OCc1cc(COC(=O)c2ccc(O)c(F)c2)cc(COC(=O)c2ccc(O)c(F)c2)c1)c1ccc(O)c(F)c1 [DLT95-F, [3,5-bis[(4-hydroxy-3-fluoro-benzoyl)oxymethyl]phenyl]methyl 4-hydroxy-3-fluoro-benzoate]",activity at 37 µM,U373-MG glioma cell line,40%
